Assay results as given in patent US11370796B2, “Substituted pyrazoles as LRRK2 inhibitors” (OSCOTEC INC., priority 2017, dated 2022).
Like-named read-outs stand apart in the source and are kept apart here.

Target: LRRK2 (leucine-rich repeat kinase 2) (Homo sapiens (Human), UniProt Q5S007)
Experiment: Inhibitory effect on LRRK2 in vitro (LANCE kinase assay)
Format: biochemical
Method: The inhibitory effect of Compounds 1 to 62 on LRRK2 (leucine-rich repeat kinase 2) in vitro was measured. In the analysis of the results, IC50 values were calculated for a quantitative comparison of the in vitro activity.
After the compound was dissolved in 100% DMSO at 10 mM, it was serially diluted to the range of 1 μM to 10 μM using biochemical LRRK2 assay buffer (50 mM HEPES (4-(2-hydroxyethyl)-1-piperazineethanesulfonic acid) pH 7.5, 10 mM MgCl2, 1 mM EGTA (1,2-bis(o-aminophenoxy)ethane-N,N,N′,N′-tetraacetic acid), 2 mM DTT (dithiothreitol), and 0.01% TWEEN-20 (Aldrich)). Purified LRRK2 (CARNA BIOSCIENCES) was added to a black U-bottom 96-well microtiter plate containing 6 μl of the serially diluted compound, followed by incubation at room temperature for 30 minutes. For the kinase reaction, ATP and a substrate solution specific urea-polypeptide (ULIGHT™-poly TK, PerkinElimer) were added. The reaction was carried out at room temperature for 1 hour, and it was detected with an detection solution (brand name: LANCE™) containing EDTA. A LANCE detection solution containing europium-labeled antibody ([…] PT66) was added, followed by incubation at room temperature for 50 minutes, to terminate the kinase experiment. The phosphorylated substrate was detected by 665 nm emission measurement. IC50 values were calculated by a non-linear regression analysis using a Prism program (PRISM™ software) with reference to the absence of a kinase inhibitor.
As a comparative assay, a compound LRR2-IN-1, that known to be a reference compound for LRRK2 inhibitor, have also tested an inhibitory activity.

[1] = Table 1, class symbols, read-out: LRRK2 inhibition rate (IC50)
[2] = purified LRRK2, Table 6, read-out: IC50

Chain of LRRK2 (leucine-rich repeat kinase 2) (Q5S007 whole entry): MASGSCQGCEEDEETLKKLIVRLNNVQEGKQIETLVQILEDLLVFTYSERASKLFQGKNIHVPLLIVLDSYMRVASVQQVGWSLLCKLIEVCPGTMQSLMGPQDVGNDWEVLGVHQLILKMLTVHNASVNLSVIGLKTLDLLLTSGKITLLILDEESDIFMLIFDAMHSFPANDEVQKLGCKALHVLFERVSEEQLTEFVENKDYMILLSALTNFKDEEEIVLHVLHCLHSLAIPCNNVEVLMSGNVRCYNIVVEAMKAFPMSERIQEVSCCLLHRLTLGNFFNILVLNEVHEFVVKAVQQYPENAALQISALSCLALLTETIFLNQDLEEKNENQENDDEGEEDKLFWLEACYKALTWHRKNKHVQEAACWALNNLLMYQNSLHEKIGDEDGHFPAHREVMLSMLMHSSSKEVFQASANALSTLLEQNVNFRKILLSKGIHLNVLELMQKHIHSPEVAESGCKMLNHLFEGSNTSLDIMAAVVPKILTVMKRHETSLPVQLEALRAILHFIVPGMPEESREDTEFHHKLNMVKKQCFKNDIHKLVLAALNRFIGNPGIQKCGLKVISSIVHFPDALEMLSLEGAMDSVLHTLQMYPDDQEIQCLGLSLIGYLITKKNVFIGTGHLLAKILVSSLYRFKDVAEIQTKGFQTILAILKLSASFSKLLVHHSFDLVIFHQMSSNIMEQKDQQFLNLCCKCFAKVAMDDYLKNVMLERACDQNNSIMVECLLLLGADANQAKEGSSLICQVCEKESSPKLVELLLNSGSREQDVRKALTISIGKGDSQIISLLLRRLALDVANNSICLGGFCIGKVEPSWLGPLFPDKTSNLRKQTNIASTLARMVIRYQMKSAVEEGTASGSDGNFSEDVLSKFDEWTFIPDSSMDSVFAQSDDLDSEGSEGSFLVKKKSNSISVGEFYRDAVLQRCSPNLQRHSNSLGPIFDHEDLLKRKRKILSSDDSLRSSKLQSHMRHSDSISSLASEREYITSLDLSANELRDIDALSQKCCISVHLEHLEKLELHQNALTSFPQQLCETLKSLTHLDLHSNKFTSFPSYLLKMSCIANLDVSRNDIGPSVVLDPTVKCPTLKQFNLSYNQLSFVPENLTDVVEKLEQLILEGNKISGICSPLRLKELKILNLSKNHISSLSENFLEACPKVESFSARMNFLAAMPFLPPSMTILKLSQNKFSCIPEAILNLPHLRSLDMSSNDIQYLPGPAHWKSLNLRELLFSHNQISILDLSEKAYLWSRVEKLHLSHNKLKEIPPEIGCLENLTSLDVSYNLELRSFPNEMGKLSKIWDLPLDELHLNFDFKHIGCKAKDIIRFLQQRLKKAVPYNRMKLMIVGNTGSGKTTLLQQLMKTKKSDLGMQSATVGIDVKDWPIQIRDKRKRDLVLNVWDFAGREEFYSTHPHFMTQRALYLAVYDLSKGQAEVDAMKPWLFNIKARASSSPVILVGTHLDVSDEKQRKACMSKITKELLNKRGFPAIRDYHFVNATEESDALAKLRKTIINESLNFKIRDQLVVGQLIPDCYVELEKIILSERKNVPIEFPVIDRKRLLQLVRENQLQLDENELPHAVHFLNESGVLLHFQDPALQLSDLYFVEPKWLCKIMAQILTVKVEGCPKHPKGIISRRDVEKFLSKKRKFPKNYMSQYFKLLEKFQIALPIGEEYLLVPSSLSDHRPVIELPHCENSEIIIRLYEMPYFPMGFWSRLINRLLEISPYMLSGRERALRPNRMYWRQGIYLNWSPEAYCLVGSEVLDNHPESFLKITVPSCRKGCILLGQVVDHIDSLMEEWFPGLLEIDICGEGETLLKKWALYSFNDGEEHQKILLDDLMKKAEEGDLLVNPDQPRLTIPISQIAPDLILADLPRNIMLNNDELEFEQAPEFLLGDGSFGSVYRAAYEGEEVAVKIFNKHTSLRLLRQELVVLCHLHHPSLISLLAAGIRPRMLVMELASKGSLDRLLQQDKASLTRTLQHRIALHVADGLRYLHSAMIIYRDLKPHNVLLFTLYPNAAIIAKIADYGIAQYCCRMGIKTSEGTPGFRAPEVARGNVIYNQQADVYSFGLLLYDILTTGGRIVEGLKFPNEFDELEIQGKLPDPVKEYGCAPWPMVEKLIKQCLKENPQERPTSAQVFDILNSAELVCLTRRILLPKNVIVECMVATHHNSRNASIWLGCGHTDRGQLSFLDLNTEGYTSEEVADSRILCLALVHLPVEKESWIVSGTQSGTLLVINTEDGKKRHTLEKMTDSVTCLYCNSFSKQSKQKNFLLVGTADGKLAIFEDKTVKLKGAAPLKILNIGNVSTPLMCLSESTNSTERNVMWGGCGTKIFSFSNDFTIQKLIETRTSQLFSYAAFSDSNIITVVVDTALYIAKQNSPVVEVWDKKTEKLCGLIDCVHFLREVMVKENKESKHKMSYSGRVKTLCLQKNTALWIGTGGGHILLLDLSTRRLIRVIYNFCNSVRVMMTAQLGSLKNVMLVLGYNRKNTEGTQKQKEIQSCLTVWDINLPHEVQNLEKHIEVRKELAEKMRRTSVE

| Structure (SMILES) | IC50 [1] [nM] | IC50 [2] [nM] |
| --- | --- | --- |
| CCn1cc(Cl)c2cnc(Nc3cn(C4CN(S(C)(=O)=O)C4)nc3Cl)nc21 [Compound 40, 5-chloro-N-(3-chloro-1-(1-(methylsulfonyl)azetidin-3-yl)-1H-pyrazol-4-yl)-7-ethyl-7H-pyrrolo[2,3-d]pyrimidin-2-amine] | 10 to 100 |  |
| CCn1cc(Cl)c2cnc(Nc3cn(C4CN(C(=O)C5CC5)C4)nc3Cl)nc21 [Compound 41, (3-(3-chloro-4-(5-chloro-7-ethyl-7H-pyrrolo[2,3-d]pyrimidin-2-ylamino)-1H-pyrazol-1-yl)azetidin-1-yl)(cyclopropyl)methanone] | 10 to 100 |  |
| CCn1cc(Cl)c2cnc(Nc3cn(C4CCCN(S(C)(=O)=O)CC4)nc3Cl)nc21 (centres unmarked) [Compound 42, 5-chloro-N-(3-chloro-1-(1-(methylsulfonyl)azepan-4-yl)-1H-pyrazol-4-yl)-7-ethyl-7H-pyrrolo[2,3-d]pyrimidin-2-amine] | < 10 |  |
| CCn1cc(Cl)c2cnc(Nc3cn(C4CCCN(C(=O)C5CC5)CC4)nc3Cl)nc21 (centres unmarked) [Compound 43, (4-(3-chloro-4-(5-chloro-7-ethyl-7H-pyrrolo[2,3-d]pyrimidin-2-ylamino)-1H-pyrazol-1-yl)azepan-1-yl)(cyclopropyl)methanone] | < 10 |  |
| CCn1nc(Cl)c2cnc(Nc3cn(-c4ccc(F)cc4)nc3Cl)nc21 [Compound 44, 3-chloro-N-(3-chloro-1-(4-fluorophenyl)-1H-pyrazol-4-yl)-1-ethyl-1H-pyrazolo[3,4-d]pyrimidin-6-amine] | 10 to 100 |  |
| CCn1nc(Cl)c2cnc(Nc3cnn(C4CCN(C5COC5)CC4)c3Cl)nc21 [Compound 45, 3-chloro-N-(5-chloro-1-(1-(oxetan-3-yl)piperidin-4-yl)-1H-pyrazol-4-yl)-1-ethyl-1H-pyrazolo[3,4-d]pyrimidin-6-amine] | 10 to 100 |  |
| CS(=O)(=O)N1CCC(n2cc(Nc3ncc4c(Cl)nn(C5CC5)c4n3)c(Cl)n2)CC1 [Compound 46, 3-chloro-N-(3-chloro-1-(1-(methylsulfonyl)piperidin-4-yl)-1H-pyrazol-4-yl)-1-cyclopropyl-1H-pyrazolo[3,4-d]pyrimidin-6-amine] | < 10 | 7.91 |
| CCn1nc(Cl)c2cnc(Nc3cn(C4CCN(S(=O)(=O)C5CC5)CC4)nc3Cl)nc21 [Compound 47, 3-chloro-N-(3-chloro-1-(1-(cyclopropylsulfonyl)piperidin-4-yl)-1H-pyrazol-4-yl)-1-ethyl-1H-pyrazolo[3,4-d]pyrimidin-6-amine] | < 10 | 6.48 |
| CCn1nc(Cl)c2cnc(Nc3cn(C4CCN(C(=O)C(F)(F)F)CC4)nc3Cl)nc21 [Compound 48, 1-(4-(3-chloro-4-(3-chloro-1-ethyl-1H-pyrazolo[3,4-d]pyrimidin-6-ylamino)-1H-pyrazol-1-yl)piperidin-1-yl)-2,2,2-trifluoroethanone] | 10 to 100 |  |
| CS(=O)(=O)N1CCC(n2cc(Nc3ncc4c(Cl)nn(CC(F)(F)F)c4n3)c(Cl)n2)CC1 [Compound 49, 3-chloro-N-(3-chloro-1-(1-(methylsulfonyl)piperidin-4-yl)-1H-pyrazol-4-yl)-1-(2,2,2-trifluoroethyl)-1H-pyrazolo[3,4-d]pyrimidin-6-amine] | 10 to 100 |  |
| FC(F)(F)Cn1nc(Cl)c2cnc(Nc3cnn(C4CCN(C5COC5)CC4)c3Cl)nc21 [Compound 50, 3-chloro-N-(5-chloro-1-(1-(oxetan-3-yl)piperidin-4-yl)-1H-pyrazol-4-yl)-1-(2,2,2-trifluoroethyl)-1H-pyrazolo[3,4-d]pyrimidin-6-amine] | 10 to 100 |  |
| CCn1nc(Cl)c2cnc(Nc3cn(C4CCCN(S(C)(=O)=O)CC4)nc3Cl)nc21 (centres unmarked) [Compound 51, 3-chloro-N-(3-chloro-1-(1-(methylsulfonyl)azepan-4-yl)-1H-pyrazol-4-yl)-1-ethyl-1H-pyrazolo[3,4-d]pyrimidin-6-amine] | < 10 | 4.75 |
| CCn1nc(Cl)c2cnc(Nc3cn(C4CCCN(C(=O)C5CC5)CC4)nc3Cl)nc21 (centres unmarked) [Compound 52, (4-(3-chloro-4-(3-chloro-1-ethyl-1H-pyrazolo[3,4-d]pyrimidin-6-ylamino)-1H-pyrazol-1-yl)azepan-1-yl)(cyclopropyl)methanone] | < 10 | 5.6 |
| CCn1nc(Cl)c2cnc(Nc3cn(C4CCN(C(=O)C(C)(C)C)CC4)nc3Cl)nc21 [Compound 53, 1-(4-(3-chloro-4-(3-chloro-1-ethyl-1H-pyrazolo[3,4-d]pyrimidin-6-ylamino)-1H-pyrazol-1-yl)piperidin-1-yl)-2,2-dimethylpropane-1-one] | < 10 |  |
| CCn1nc(Cl)c2cnc(Nc3cn(C4CCN(C(=O)N5CCOCC5)CC4)nc3Cl)nc21 [Compound 54, (4-(3-chloro-4-(3-chloro-1-ethyl-1H-pyrazolo[3,4-d]pyrimidin-6-ylamino)-1H-pyrazol-1-yl)piperidin-1-yl)(morpholino)methanone] | < 10 |  |
| CCn1nc(Cl)c2cnc(Nc3cn(C4CCN(S(C)(=O)=O)CC4)nc3Cl)nc21 [Compound 55, 3-chloro-N-(3-chloro-1-(1-(methylsulfonyl)piperidin-4-yl)-1H-pyrazol-4-yl)-1-ethyl-1H-pyrazolo[3,4-d]pyrimidin-6-amine] | < 10 | 4.49 |
| CCn1nc(Cl)c2cnc(Nc3c(Cl)nn(C4CCN(C(=O)C5CC5)CC4)c3C)nc21 [Compound 56, (4-(3-chloro-4-(3-chloro-1-ethyl-1H-pyrazolo[3,4-d]pyrimidin-6-ylamino)-5-methyl-1H-pyrazol-1-yl)piperidin-1-yl)(cyclopropyl)methanone] | 100 to 1000 |  |
| CCn1nc(Cl)c2cnc(Nc3cn(C4CCN(C(=O)C5CC5)CC4)nc3Cl)nc21 [Compound 57, (4-(3-chloro-4-(3-chloro-1-ethyl-1H-pyrazolo[3,4-d]pyrimidin-6-ylamino)-1H-pyrazol-1-yl)piperidin-1-yl)(cyclopropyl)methanone] | < 10 | 7.22 |
| CCn1nc(Cl)c2cnc(Nc3cn(C4CCN(C(C)=O)CC4)nc3Cl)nc21 [Compound 58, 1-(4-(3-chloro-4-(3-chloro-1-ethyl-1H-pyrazolo[3,4-d]pyrimidin-6-ylamino)-1H-pyrazol-1-yl)piperidin-1-yl)ethanone] | < 10 | 5.92 |
| CCn1nc(Cl)c2cnc(Nc3cn(C4CCN(S(=O)(=O)CC)CC4)nc3Cl)nc21 [Compound 59, 3-chloro-N-(3-chloro-1-(1-(ethylsulfonyl)piperidin-4-yl)-1H-pyrazol-4-yl)-1-ethyl-1H-pyrazolo[3,4-d]pyrimidin-6-amine] | < 10 | 3.94 |
| CCn1nc(Cl)c2cnc(Nc3cn(C4CN(C(=O)C5CC5)C4)nc3Cl)nc21 [Compound 60, (3-(3-chloro-4-(3-chloro-1-ethyl-1H-pyrazolo[3,4-d]pyrimidin-6-ylamino)-1H-pyrazol-1-yl)azetidin-1-yl)(cyclopropyl)methanone] | 10 to 100 |  |
| CCn1nc(Cl)c2cnc(Nc3cnn(C4CN(C5COC5)C4)c3Cl)nc21 [Compound 61, 3-chloro-N-(5-chloro-1-(1-(oxetan-3-yl)azetidin-3-yl)-1H-pyrazol-4-yl)-1-ethyl-1H-pyrazolo[3,4-d]pyrimidin-6-amine] | 10 to 100 |  |
| CCn1nc(Cl)c2cnc(Nc3cnn(C4CCN(S(C)(=O)=O)CC4)c3Cl)nc21 [Compound 62, 3-chloro-N-(5-chloro-1-(1-(methylsulfonyl)piperidin-4-yl)-1H-pyrazol-4-yl)-1-ethyl-1H-pyrazolo[3,4-d]pyrimidin-6-amine] | 10 to 100 |  |
| COc1cc(C(=O)N2CCC(N3CCN(C)CC3)CC2)ccc1Nc1ncc2c(n1)N(C)c1ccccc1C(=O)N2C [LRRK2-IN-1, reference compound] |  | 8.2 |
